Calls of active or inactive are those of the source. The calls are words filed in the database; no cut-off is given here.
How the values were obtained:
[1] = tested on: HT-29; experiment: Cytotoxicity against human HT-29 cells assessed as cell growth inhibition at 50 uM after 24 hrs by MTT assay; assay type: functional, cell-based
[2] = tested on: RKO; experiment: Cytotoxicity against human RKO cells assessed as cell growth inhibition at 50 uM after 24 to 72 hrs by MTT assay; assay type: functional, cell-based; conditions: time 24-72 hrs
[3] = target: T1, P2X purinoceptor 7 (Homo sapiens) (UniProt Q99572); experiment: Antagonist activity at human P2X7R expressed in human HT-29 cells assessed as reduction in ethidium bromide uptake at 100 uM in presence of BzATP; assay type: cell-based; conditions: filed as antagonist
T1 sequence (whole entry): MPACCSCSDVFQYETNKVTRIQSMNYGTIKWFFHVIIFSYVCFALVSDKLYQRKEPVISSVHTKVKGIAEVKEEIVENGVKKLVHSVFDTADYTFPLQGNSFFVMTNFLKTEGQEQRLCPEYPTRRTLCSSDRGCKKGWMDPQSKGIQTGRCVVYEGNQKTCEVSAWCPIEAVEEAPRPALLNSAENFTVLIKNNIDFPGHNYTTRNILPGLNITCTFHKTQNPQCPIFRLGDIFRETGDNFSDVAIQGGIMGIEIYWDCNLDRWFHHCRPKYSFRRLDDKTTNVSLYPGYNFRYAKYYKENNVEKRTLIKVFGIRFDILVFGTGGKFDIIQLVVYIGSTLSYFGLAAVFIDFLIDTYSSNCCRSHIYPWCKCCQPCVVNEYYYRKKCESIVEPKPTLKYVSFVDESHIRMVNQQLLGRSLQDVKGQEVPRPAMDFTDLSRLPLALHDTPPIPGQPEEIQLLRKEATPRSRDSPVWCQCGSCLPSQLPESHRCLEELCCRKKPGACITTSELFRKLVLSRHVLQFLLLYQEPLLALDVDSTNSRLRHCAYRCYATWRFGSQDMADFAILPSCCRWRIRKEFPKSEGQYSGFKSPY

[4] = target: T1, P2X purinoceptor 7 (Homo sapiens); experiment: Antagonist activity at human P2X7R expressed in human RKO cells assessed as reduction in ethidium bromide uptake at 100 uM in presence of BzATP; assay type: cell-based
[5] = tested on: HT-29; experiment: Cytotoxicity against human HT-29 cells assessed as cell growth inhibition at 50 uM after 48 to 72 hrs by MTT assay; assay type: functional, cell-based; conditions: time 48-72 hrs
[6] = target: T2, P2X purinoceptor 7 (Mus musculus) (UniProt Q9Z1M0); experiment: Antagonist activity at mouse P2X7R expressed in mouse CT26 cells assessed as reduction in ethidium bromide uptake by cells at 100 uM in presence of BzATP; assay type: cell-based
T2 sequence (whole entry): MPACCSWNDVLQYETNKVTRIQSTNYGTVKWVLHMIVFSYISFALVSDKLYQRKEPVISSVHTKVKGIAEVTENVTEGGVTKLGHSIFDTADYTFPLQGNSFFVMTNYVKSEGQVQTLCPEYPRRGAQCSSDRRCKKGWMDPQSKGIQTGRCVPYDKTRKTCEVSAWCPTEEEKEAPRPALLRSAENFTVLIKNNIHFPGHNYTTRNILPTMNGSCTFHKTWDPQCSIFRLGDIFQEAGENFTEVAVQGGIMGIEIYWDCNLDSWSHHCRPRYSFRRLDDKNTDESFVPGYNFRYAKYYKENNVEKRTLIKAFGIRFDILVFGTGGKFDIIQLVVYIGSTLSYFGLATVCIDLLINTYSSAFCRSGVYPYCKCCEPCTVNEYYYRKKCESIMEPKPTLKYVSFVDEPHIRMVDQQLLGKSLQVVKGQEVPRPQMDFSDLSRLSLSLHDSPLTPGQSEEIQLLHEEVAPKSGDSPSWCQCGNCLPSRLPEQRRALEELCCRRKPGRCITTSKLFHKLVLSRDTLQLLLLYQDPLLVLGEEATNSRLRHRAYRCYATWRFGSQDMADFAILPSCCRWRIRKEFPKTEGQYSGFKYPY

[7] = tested on: HT-29; experiment: Antimigratory activity against human HT-29 cells assessed as reversal of BzATP induced cell migration at 50 uM; assay type: functional, cell-based
[8] = tested on: HUVEC; experiment: Cytotoxicity against HUVEC cells assessed as reduction in cell growth inhibition at 50 uM measured after 24 to 72 hrs by MTT assay; assay type: cell-based; conditions: human, time 24-72 hrs

Row | Activity [3] | Activity [4] | Activity [6] | SMILES | Activity [1] | Activity [2] | Activity [5] | Activity [7] | Activity [8]
1 | Active | inactive | inactive | COc1ccc(CC(=O)NC(N/C(=N/C#N)Nc2cccc3ncccc23)C(C)(C)C)cc1OC (stereo not drawn) | inactive | inactive | Active | – | –
2 | Active | inactive | – | CCOc1ccc(-n2c(=O)[nH]c3c(C(N)=O)nc(-c4cc(F)ccc4F)nc32)cc1 | Active | inactive | Active | Active | Toxic
